Assay results from US5532231A, “Antibacterial agent” (priority 1994, dated 1996).
Entries after “also recorded” stand apart in the source; their conditions may differ.

Legend:
E. coli ESS Kan^r [1] = assay: Paper disc filter antibiotic assay (zone of inhibition); format: cell-based, Escherichia coli
Method: Escherichia coli ESS Kan^r, is a kanamycin resistant strain of E. coli ESS, derived by transducing E. coli ESS with P1:TnV, Kan^r. This strain was used for the standard antibiotic assays.
LB Kan medium was solidified by 1.5% Bacto agar (Difco). For the antibiotic assay, Nutrient Broth agar plates were used. NB medium is 0.8% Nutrient Broth (Difco) containing 0.5% NaCl (Merck). NB was solidified by 1.8% Bacto agar (Difco). The NB plates were overlaid by 3.5 ml NB soft agar (0.9% Bacto agar) mixed with 0.1 ml E. coli ESS Kan^r overnight culture.
(§1) Antibiotic activity against E. coli ESS Kan^r was determined by the paper disc filter assay (Leo et al., 1945). Unknown quantities of antibiotic TA or Focusin, dissolved in ethanol, saline or NB were applied to paper disc filters (6 mm diameter; Schleicher and Schull). After allowing the ethanol to evaporate in the hood for about 15 mins, the dry filters were placed on nutrient broth plates which had been overlaid with an overnight culture of E. coli ESS Kan^r as described above.
(§2) The diameter of the zone of inhibition was recorded after 18 hours in incubation at 37° C. The concentration of the antibacterial agents were determined from a standard inhibition curve prepared with known quantities of TA and Focusin.

[2] = format: physicochemical
Method: Focusin and TA at concentrations of 3 mg/ml were diluted either in ethanol or in saline containing 1% ethanol to yield a final concentration in each case of 30 μg/ml. The solutions were mixed at 37° C. for one hour under shaking, and then were centrifuged at 5000 g for 10 minutes. Several samples were taken from the supernatants of the tubes and were applied on disc filters in order to determine the concentration of the antibacterial agents in the saline and ethanol solutions, by the paper disc bioassay method.

E. coli ESS Kan^r [3] = assay: Sensitivity to combined exposure to light and air (remaining activity by paper disc bioassay); format: physicochemical, Escherichia coli
Method: as §1, §2
100 ng of TA and Focusin dissolved in ethanol were applied to paper filters and allowed to dry in a hood for 15 mins. The filters were then exposed to light from a fluorescent lamp in the hood; the distance from the lamp to the filters was approximately 40 cm. The controls were placed in the dark under a plastic box within the hood.
After exposure of the filters to the light for varying periods of time, the remaining activity of the agents was measured by the paper disc bioassay and the results are shown in the following Table 1: […]

Bacillus subtilis = assay: Antimicrobial spectrum, liquid media, viable cell count; format: cell-based; conditions: saturating concentrations
Method: (§3) Saturated solutions of TA and Focusin were prepared by adding 1.14 μg TA and 7 μg Focusin to 1 ml LB (final conc. of 1% ethanol). About 10^5 bacteria of various strains were then added. The control was bacteria in the same medium with no antibacterial agents. The bacteria were introduced at 37° C. with shaking at 100 rpm. When the control became turbid, viable cell count was performed on LB agar plates. Growth inhibition is presented as percentage of the no antibiotic control.

Citrobacter diversus = assay: as above; format: cell-based; conditions: saturating concentrations
Method: as §3

Helicobacter pilori = assay: as above; format: cell-based; conditions: saturating concentrations
Method: as §3

Klebsiella pneumoniae = assay: as above; format: cell-based; conditions: saturating concentrations; hospital strain
Method: as §3

Klebsiella sp = assay: as above; format: cell-based; conditions: saturating concentrations; hospital strain
Method: as §3

Pseudomonas aeruginosa = assay: as above; format: cell-based; conditions: saturating concentrations
Method: as §3

Serratia marcescens = assay: as above; format: cell-based; conditions: saturating concentrations
Method: as §3

tested bacterial strains = assay: Antimicrobial spectrum, overall; format: cell-based
Method: as §3

E. coli ESS [4] = assay: Bactericidal effect when bound to mouse tissues; format: cell-based, Escherichia coli; conditions: 4 μg TA or 20 μg Focusin, 5 h
Method: Two mice were sacrificed by exposure to ether. The bladder, eyes, intestines, lungs, heart, teeth, liver, spleen and kidneys were removed by dissection. Each experimental set consisted of three test tubes. A piece of each tissue type was placed in each of the three test tubes. The amount of tissue per tube were as follows: bladder 1/3, eye 1/2, intestine 1 cm, lung 1/2, heart 1/3, fang tooth 1/2, liver 1/3, spleen 1/3 and kidney 1/2. One test tube contained a control tissue which was treated only with the solvent used for dissolving the antibacterial agent, usually 50% ethanol. The second and third test tubes contained tissues were treated with 4 μg TA or 20 μg Focusin, respectively.
Following application of the antibacterial agent or the control solution, the tissues were allowed to dry in a hood for 30 mins., and then placed in the test tubes.
One milliliter of sterile saline was then added to each test tube and the tubes were then incubated with shaking (50 rpm) at 37° C. for one hour. The amount of antibacterial agent that was released to the saline was measured following chloroform extraction by the disc filter assay.
The tissues were then transferred to exponentially growing cultures of E. coli ESS in NB at a concentration of 10^5 cells/ml. Incubation was at 37° C. and continued for 5 hours, following which the number of viable cells was checked.

E. coli ESS [5] = assay: Release of Focusin from mouse tissue: inhibition by the 4th wash liquid; format: cell-based, Escherichia coli; conditions: for Inhibition % by the 4th wash liquid: 10 μg Focusin
Method: Focusin was tested in the same manner as that described above (under 8.1) with the exception that the tissues in the test tube were washed four times with a solution of 1 ml sterile saline. Each saline wash was for 1 hour at 37° C. Following incubation, the washing saline solution was added to an exponentially growing cultures of E. coli ESS in a concentration of 10^5 cells/ml.
The cultures with the saline wash were incubated at 37° C. for 6 hours and then viable cell count was performed in order to estimate the amount of killing by the antibacterial agent that were released from the tissues. After the four washes the tissues were transferred to 10^5 E. coli ESS log cultures and were then incubated for 5 hours. The tissues were transferred in this way for three times, each time the percentage of inhibition by the treated tissue was measured by viable count.
The tissues were treated as described in Section 8.2 above.

CCCC1OC(=O)C(C)CC(C)CCCCC(=O)CCCC(CC)CCCC(COC)CCC(O)C(O)CC(O)CNC1=O (stereo not shown) [Focusin]
activity relative to TA at high concentrations (E. coli ESS Kan^r [1]; high concentrations): 1/10
activity relative to TA at low concentrations (E. coli ESS Kan^r [1]; low concentrations): approximately 1/8
amount giving an inhibition zone of 11 mm (E. coli ESS Kan^r [1]; zone 11 mm, paper disc): 640 ng
amount required to obtain a zone of inhibition of about 2 mm (E. coli ESS Kan^r [1]; zone about 2 mm, paper disc): 60 ng
aqueous solubility compared with TA (in words) [2]: higher aqueous solubility than TA
solubility in ethanol [2]: completely soluble
solubility in saline ([2]; saline with 1% ethanol, 1 h): about 7 μg/ml
activity after exposure to light and air (E. coli ESS Kan^r [3]; 0 hours): 100%
activity after exposure to light and air (E. coli ESS Kan^r [3]; 1 hour): 100%
activity after exposure to light and air (E. coli ESS Kan^r [3]; 4 hours): 100%
activity after exposure to light and air (E. coli ESS Kan^r [3]; 6 hours): 100%
activity after exposure to light and air (E. coli ESS Kan^r [3]; 8 hours): 100%
activity after exposure to light and air (E. coli ESS Kan^r [3]; 20 hours): 100%
stability to exposure to light and air (in words) (E. coli ESS Kan^r [3]; combined light and air, up to 20 hours): much more stable to exposure to light and air than the TA antibiotic; also recorded: completely resistant to breakdown
killing (Bacillus subtilis): 100%
killing (Citrobacter diversus): 100%
killing (Helicobacter pilori): 100%
killing (Klebsiella pneumoniae): 96%
killing (Klebsiella sp): 60%
killing (Pseudomonas aeruginosa): 0%
killing (Serratia marcescens): 67%
antibacterial activity spectrum (in words) (tested bacterial strains): broad spectrum antibacterial activity against both Gram-positive and Gram-negative bacteria
Inhibition % by the treated tissue (E. coli ESS [4]; bladder): 100%
Inhibition % by the treated tissue (E. coli ESS [4]; heart): 90%
Inhibition % by the treated tissue (E. coli ESS [4]; intestine): 100%
Inhibition % by the treated tissue (E. coli ESS [4]; kidney): 100%
Inhibition % by the treated tissue (E. coli ESS [4]; liver): 94%
Inhibition % by the treated tissue (E. coli ESS [4]; lungs): 100%
Inhibition % by the treated tissue (E. coli ESS [4]; spleen): 100%
Inhibition % by the treated tissue (E. coli ESS [4]; teeth): 100%
inhibition of E. coli growth by the fourth liquid wash (in words) (E. coli ESS [5]; all tissues except liver): completely inhibit the E. coli growth
Inhibition % by the 4th wash liquid (E. coli ESS [5]; bladder): 100%
Inhibition % by the 4th wash liquid (E. coli ESS [5]; eye): 100%
Inhibition % by the 4th wash liquid (E. coli ESS [5]; heart): 100%
Inhibition % by the 4th wash liquid (E. coli ESS [5]; intestine): 100%
Inhibition % by the 4th wash liquid (E. coli ESS [5]; kidney): 100%
Inhibition % by the 4th wash liquid (E. coli ESS [5]; liver): 67%
Inhibition % by the 4th wash liquid (E. coli ESS [5]; lungs): 100%
Inhibition % by the 4th wash liquid (E. coli ESS [5]; spleen): 100%
Inhibition % by the 4th wash liquid (E. coli ESS [5]; teeth): 100%
